Data reported in the SangsterLogP compilation.

Assay: method code SF-AS, from PMID: 8295915

Row | logP | SMILES
1 | 2.72 | CCNc1nc(C)c(C(=O)CCN(CC)CC)s1
2 | 0.95 | CNc1nc(C)c(C(=O)CCN2CCOCC2)s1
3 | 1.76 | CCN(CC)CCC(=O)c1sc(N)nc1C
4 | 1.58 | CNc1nc(C)c(C(=O)CCN(C)C)s1
5 | 1.86 | CNc1nc(C)c(C(=O)CCN2CCCC2)s1
6 | 2.66 | CCNc1nc(C)c(C(=O)CCN2CCCCC2)s1
7 | 2.13 | Cc1nc(N)sc1C(=O)CCN1CCCCC1
8 | 0.82 | Cc1nc(N)sc1C(=O)CCN1CCOCC1
9 | 2.21 | CCNc1nc(C)c(C(=O)CCN(C)C)s1
10 | 1.74 | Cc1nc(N)sc1C(=O)CCN1CCCC1
11 | 1.43 | CCNc1nc(C)c(C(=O)CCN2CCOCC2)s1
12 | 2.21 | CNc1nc(C)c(C(=O)CCN2CCCCC2)s1
13 | 1.47 | Cc1nc(N)sc1C(=O)CCN(C)C
